For data set [1], the system named is human hepatocytes (hES15). The data set can be described thus: Cytokine ELISA secretion profiling of human hepatocytes after drug treatment.
Protocol: Upon completion of the culture, the maturation of hepatocytes was induced by the same manner as described in Example 1 and then the matured hepatocytes were obtained (FIG. 1).
(§1) Particularly, the hepatocytes at 19th day of the differentiation from human stem cells, which were prepared by the method described in Example 1, were distributed in a 6-well plate (90%/well), and then the medium was replaced with 1000 mg/L DMEM-low glucose medium (Dulbecco's Modified Eagle's Medium, Welgene No. 001-11), followed by culture for 2 hours. Then, the stem cell derived hepatocyte culture medium was obtained. To eliminate by-products of the cell culture, centrifugation was performed at 12,000×g, for 20 minutes at 4° C. Supernatant was obtained. The capture antibodies, 2.5 μg/ml anti-IL-1β antibody, 2 μg/ml anti-IL-6 antibody, 2.5 μg/ml anti-IL-10 antibody, 2 μg/ml anti-IL-12 antibody, 1 μg/ml anti-TNF-α antibody, 2 μg/ml anti-IFN-α antibody, 1 μg/ml anti-IFN-β antibody, and 2 μg/ml anti-TGF-β antibody, were cultured at 37° C. for 2 hours, with which 96-well ELISA plate was coated. The plate was washed, followed by blocking with 0.2% I-block (Foster city, CA) at 37° C. for 2 hours. Upon completion of the blocking, the capture antibodies were washed and cultured with a standard material (2 fold serial diluted in protein free flexible plate from 10 ng/ml to 4.88 pg/ml) and the supernatant in ELISA plate (Greiner, Kremsmunster, Austria) at 37° C. for 2 hours. Upon completion of the culture, the biotinylated detection antibodies (anti-IL-1β antibody: 2 μg/ml, anti-IL-6 antibody: 1 μg/ml, anti-IL-10 antibody: 1 μg/ml, anti-IL-12 antibody: 1 μg/ml, anti-TNF-α antibody: 1 μg/ml, anti-IFN-α antibody: 4 μg/ml, anti-IFN-β antibody: 2 μg/ml, anti-TGF-β antibody: 1 μg/ml, final concentration) were added thereto, followed by further culture at 37° C. for 2 hours. Then, alkaline phosphatase conjugated streptavidin was added thereto, followed by further culture at room temperature for 30 minutes. 5 mM nitrophenyl phosphate substrate was added thereto, and OD405 was measured by using ELISA reader.
Particularly, the hepatocytes at 19th day of the differentiation from human stem cells, which were prepared by the method described in Example 1, were distributed in a 6-well plate (90%/well), and then the medium was replaced with 1000 mg/L DMEM-low glucose medium (Dulbecco's Modified Eagle's Medium, Welgene No. 001-11), followed by culture for 2 hours. […] Then, culture fluids of the hepatocytes differentiated from stem cells and the human hepatocytes were obtained to extract immunotoxic materials therefrom. To eliminate by-products of the cultured cells, centrifugation was performed at 12,000×g for 20 minutes at 4° C., and then supernatant was obtained. […]
Data set [2] concerns hepatocytes differentiated from human embryonic stem cells (hESC4). Put plainly: Cytokine ELISA secretion profiling of stem cell derived hepatocytes after drug treatment. Particulars: ELISA of supernatant. (In general: In an ELISA, binding on a coated surface is turned into a signal by an enzyme label.)
Protocol: as §1
(§2) Particularly, the hepatocytes at 19th day of the differentiation from human stem cells, which were prepared by the method described in Example 1, were distributed in a 6-well plate (90%/well), and then the medium was replaced with 1000 mg/L DMEM-low glucose medium (Dulbecco's Modified Eagle's Medium, Welgene No. 001-11), followed by culture for 2 hours.
The test system is the same in data set [3].
Protocol: as §1, §2
[4] abbreviates: CCl4 0, 5, 10, 20 mM for 24 hours, ELISA of supernatant.
Where [5] appears, read: CCl4 0, 5, 10, 20 mM for 24 hours.

For the compound `ClC(Cl)(Cl)Cl` [CCl4], the values for the IFN-α detected entry in data set [1] (setting [4]) and in data set [2] (setting [5]) were “also detected in the cells” and “detected in the cells CCl4 dose dependently”, respectively. Also, the results for the IL-10 detected entry in data set [1] (setting [4]) and in data set [2] (setting [5]) were “also detected in the cells” and “detected in the cells CCl4 dose dependently”, respectively. Besides, the “cytokine secretion compared with hepatocytes differentiated from stem cells” value in data set [1] (considering the smaller number of human hepatocytes, CCl4: cytokines, acetaminophen: IL-6 and IFN-β) is listed as “secreted more in human hepatocytes”. Also, the IL-6 detected result in data set [1] (treatment for 24 hours (CCl4 0, 5, 10, 20 mM; acetaminophen 0, 10, 20 mM), ELISA of supernatant) is “also detected in the cells”; in data set [2] (treatment for 24 hours (CCl4 0, 5, 10, 20 mM; acetaminophen 0, 10, 20 mM)), “detected in the cells CCl4 dose dependently”.
Regarding `CCO` [ethanol], the “ethanol induced toxic reaction” value in data set [3] is listed as “did not show ethanol induced toxic reaction”.

The values above are taken from patent US20170052172A1, “IMMUNE HEPATOTOXICITY SCREENING METHOD USING HEPATOCYTES DERIVED FROM HUMAN STEM CELLS” (KOREA ADVANCED INSTITUTE OF SCIENCE AND TECHNOLOGY, priority 2014, published 2017).
